Data published in US11046716B2, “Beta-lactamase inhibitors” (priority 2015, dated 2021).
pIC50: −log10 of the molar value. Where two headings read alike, the source gives them in different places.

Columns and labels:
SHV-5 = molecular target: T1, SHV-5 (Klebsiella pneumoniae, UniProt P0A3M1); assay: β-lactamase enzyme inhibition assay, SHV-5 (cefotaxime substrate); format: biochemical
T1 construct: made in house; host or cells: E. coli BL21(DE3)
Method in brief: (§1)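 Compounds are mixed with purified, untagged recombinant β-lactamase and held 15 min at 37 °C. Substrate is then added: nitrocefin (100 μM final) for OXA-1, imipenem for KPC-2, cefotaxime for SHV-5. Absorbance is followed immediately, and percent inhibition per concentration gives the IC50.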

KPC-2 = molecular target: T2, KPC-2 (Klebsiella pneumoniae, UniProt Q9F663); assay: β-lactamase enzyme inhibition assay, KPC-2 (imipenem substrate); format: biochemical
T2 construct: made in house; host or cells: E. coli BL21(DE3)
T2 sequence (Q9F663 25-293, looked up): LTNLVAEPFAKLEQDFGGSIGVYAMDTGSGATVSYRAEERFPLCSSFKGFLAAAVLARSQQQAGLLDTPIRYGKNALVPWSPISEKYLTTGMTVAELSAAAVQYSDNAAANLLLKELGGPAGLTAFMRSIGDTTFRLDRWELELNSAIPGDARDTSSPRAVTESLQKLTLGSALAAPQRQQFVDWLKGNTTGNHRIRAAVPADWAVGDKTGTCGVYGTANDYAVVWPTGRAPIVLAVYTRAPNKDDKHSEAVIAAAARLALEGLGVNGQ
Method in brief: as §1

VIM-2 = molecular target: T3, VIM-2 (Escherichia coli, UniProt Q5U7L7); assay: β-lactamase enzyme inhibition assay, VIM-2 (nitrocefin substrate); format: biochemical
T3 construct: made in house; host or cells: E. coli BL21(DE3)
Method in brief: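 First, VIM-2 purified by repeated anion exchange at pH 7.5 is mixed with inhibitor and held 15 min at 37 °C. Next, nitrocefin (final 100 μM) is dispensed and absorbance at 486 nm monitored immediately for 10 min. Rates versus uninhibited controls give IC50.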

AmpC = molecular target: T4, AmpC (Enterobacter cloacae, UniProt P05364); assay: β-lactamase enzyme inhibition assay, p99 AmpC (nitrocefin substrate); format: biochemical
T4 construct: made in house; host or cells: E. coli BL21(DE3)
T4 sequence (P05364 21-381): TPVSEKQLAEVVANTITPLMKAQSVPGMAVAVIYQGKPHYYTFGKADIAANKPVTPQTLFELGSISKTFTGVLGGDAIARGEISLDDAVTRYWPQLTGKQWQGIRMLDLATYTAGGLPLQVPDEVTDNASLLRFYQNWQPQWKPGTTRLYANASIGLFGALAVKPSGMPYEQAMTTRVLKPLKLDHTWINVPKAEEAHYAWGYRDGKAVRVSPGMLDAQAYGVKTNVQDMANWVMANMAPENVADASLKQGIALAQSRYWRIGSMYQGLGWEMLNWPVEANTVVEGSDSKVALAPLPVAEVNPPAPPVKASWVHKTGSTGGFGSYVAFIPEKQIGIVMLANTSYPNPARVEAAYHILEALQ
Method in brief: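 Compounds are mixed with purified, untagged recombinant β-lactamase and held 15 min at 37 °C. Substrate is then added. Absorbance is followed immediately, and percent inhibition per concentration gives the IC50.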

OXA-48 = OXA-48 (UniProt Q6XEC0); assay: β-lactamase enzyme inhibition assay, Class D oxacillinase; format: biochemical; conditions: read-out: OXA-48
[1] = tested on: E. coli expressing the Class A Extended Spectrum Beta-Lactamase (ESBL) CTX-M-15; assay: Broth microdilution MIC assay with ceftazidime, E. coli CTX-M-15; format: cell-based; conditions: Fixed CAZ (ceftazidime) 4 μg/mL; E. coli ESBL4 CTX-M-15
Method in brief: (§2)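 Strains grown 3-5 hours in CAMHB are inoculated by the CLSI broth microdilution method onto compound dilutions (16 to 0.125 μg/mL) overlaid with β-lactam at 4 μg/ml final. After 16-20 hours at 37° C, the lowest compound concentration inhibiting growth is taken as the MIC.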

[2] = tested on: E. cloacae expressing the Class C P99; assay: Broth microdilution MIC assay with ceftazidime, E. cloacae P99; format: cell-based; conditions: Fixed CAZ (ceftazidime) 4 μg/mL; E. cl. 144200 p99 AmpC
Method in brief: as §2

[3] = tested on: K. pneumoniae expressing the Class A carbapenemase KPC-2; assay: Broth microdilution MIC assay with meropenem, K. pneumoniae KPC-2; format: cell-based; conditions: Fixed Mero (meropenem) 4 μg/mL; K. p. 156319 KPC-3
Method in brief: as §2

[4] = tested on: P. aeruginosa expressing the Class B carbapenemase VIM-2; assay: Broth microdilution MIC assay with meropenem, P. aeruginosa VIM-2; format: cell-based; conditions: Fixed Mero (meropenem) 4 μg/mL; P. aerug. 2775 VIM-2
Method in brief: as §2

[5] = tested on: K. pneumoniae expressing the class A carbapenemase KPC-2 and the class B carbapenemase VIM-4; assay: Broth microdilution MIC assay with meropenem, K. pneumoniae KPC-2 and VIM-4; format: cell-based; conditions: Fixed Mero (meropenem) 4 μg/mL; K. p. A-1797 KPC-2 VIM-4
Method in brief: as §2

[6] = tested on: K. pneumoniae producing the Class D carbapenemase OXA-48; assay: Broth microdilution MIC assay with meropenem, K. pneumoniae OXA-48; format: cell-based; conditions: Fixed Mero (meropenem) 4 μg/mL; K. p. 11978 OXA-48
Method in brief: as §2

[7] = Class A, imipenem substrate, 300 nm, read-out: KPC-2
[8] = Class B, nitrocefin substrate, 486 nm, read-out: VIM-2

T1 sequence (P0A3M1 22-286): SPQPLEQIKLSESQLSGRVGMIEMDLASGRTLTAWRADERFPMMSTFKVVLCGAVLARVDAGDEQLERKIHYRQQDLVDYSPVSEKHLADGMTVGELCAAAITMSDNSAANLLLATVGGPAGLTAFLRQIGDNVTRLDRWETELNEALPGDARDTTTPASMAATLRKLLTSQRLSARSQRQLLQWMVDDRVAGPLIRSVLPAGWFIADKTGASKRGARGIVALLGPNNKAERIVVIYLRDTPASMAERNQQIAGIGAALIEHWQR

| SMILES | pIC50 (SHV-5) | pIC50 (KPC-2; [7]) | pIC50 (VIM-2; [8]) | pIC50 (AmpC) | pIC50 (OXA-48) | MIC (μg/mL) of Exemplary Compounds in presence of fixed β-lactams: E. coli ESBL4 CTX-M-15 [1] | MIC (μg/mL) of Exemplary Compounds in presence of fixed β-lactams: E. cl. 144200 p99 AmpC [2] | MIC (μg/mL) of Exemplary Compounds in presence of fixed β-lactams: K. p. 156319 KPC-3 [3] | MIC (μg/mL) of Exemplary Compounds in presence of fixed β-lactams: P. aerug. 2775 VIM-2 [4] | MIC (μg/mL) of Exemplary Compounds in presence of fixed β-lactams: K. p. A-1797 KPC-2 VIM-4 [5] | MIC (μg/mL) of Exemplary Compounds in presence of fixed β-lactams: K. p. 11978 OXA-48 [6] | pIC50 (KPC-2) | pIC50 (VIM-2) |
| --- | --- | --- | --- | --- | --- | --- | --- | --- | --- | --- | --- | --- | --- |
| O=C(Cn1nnc(CO)c1CO)N[C@H]1Cc2cccc(C(=O)O)c2OB1O [Example 8, (R)-3-(2-(4,5-bis(hydroxymethyl)-1H-1,2,3-triazol-1-yl)acetamido)-2-hydroxy-3,4-dihydro-2H-benzo[e][1,2]oxaborinine-8-carboxylic acid] | > 7.00 | 6.00 to 7.00 | 5.00 to 6.00 | 5.00 to 6.00 | 6.00 to 7.00 | C (C represents an MIC of <1 μg/mL) | C (C represents an MIC of <1 μg/mL) | B (B represents an MIC between 1 and 16 μg/mL inclusive) | B (B represents an MIC between 1 and 16 μg/mL inclusive) | B (B represents an MIC between 1 and 16 μg/mL inclusive) | B (B represents an MIC between 1 and 16 μg/mL inclusive) | – | – |
| NCCc1cnnn1CC(=O)N[C@H]1Cc2cccc(C(=O)O)c2OB1O [Example 121, (R)-3-(2-(5-(2-aminoethyl)-1H-1,2,3-triazol-1-yl)acetamido)-2-hydroxy-3,4-dihydro-2H-benzo[e][1,2]oxaborinine-8-carboxylic acid] | > 7.00 | – | – | > 7.00 | > 7.00 | C (C represents an MIC of <1 μg/mL) | C (C represents an MIC of <1 μg/mL) | C (C represents an MIC of <1 μg/mL) | C (C represents an MIC of <1 μg/mL) | B (B represents an MIC between 1 and 16 μg/mL inclusive) | B (B represents an MIC between 1 and 16 μg/mL inclusive) | > 7.00 | 6.00 to 7.00 |
| Nc1nnc(CC(=O)N[C@H]2Cc3cccc(C(=O)O)c3OB2O)[nH]1 [Example 20, (R)-3-(2-(5-amino-4H-1,2,4-triazol-3-yl)acetamido)-2-hydroxy-3,4-dihydro-2H-benzo[e][1,2]oxaborinine-8-carboxylic acid] | > 7.00 | > 7.00 | 6.00 to 7.00 | 6.00 to 7.00 | 6.00 to 7.00 | C (C represents an MIC of <1 μg/mL) | C (C represents an MIC of <1 μg/mL) | B (B represents an MIC between 1 and 16 μg/mL inclusive) | B (B represents an MIC between 1 and 16 μg/mL inclusive) | B (B represents an MIC between 1 and 16 μg/mL inclusive) | B (B represents an MIC between 1 and 16 μg/mL inclusive) | – | – |
| N=C(N)NCc1cn(CC(=O)N[C@H]2Cc3cccc(C(=O)O)c3OB2O)nn1 [Example 3, (R)-3-(2-(4-(guanidinomethyl)-1H-1,2,3-triazol-1-yl)acetamido)-2-hydroxy-3,4-dihydro-2H-benzo[e][1,2]oxaborinine-8-carboxylic acid] | > 7.00 | > 7.00 | > 7.00 | > 7.00 | > 7.00 | C (C represents an MIC of <1 μg/mL) | C (C represents an MIC of <1 μg/mL) | C (C represents an MIC of <1 μg/mL) | C (C represents an MIC of <1 μg/mL) | C (C represents an MIC of <1 μg/mL) | C (C represents an MIC of <1 μg/mL) | – | – |
| NCc1cnnn1CC(=O)N[C@H]1Cc2cccc(C(=O)O)c2OB1O [Example 13, (R)-3-(2-(5-(aminomethyl)-1H-1,2,3-triazol-1-yl)acetamido)-2-hydroxy-3,4-dihydro-2H-benzo[e][1,2]oxaborinine-8-carboxylic acid] | 6.00 to 7.00 | > 7.00 | 6.00 to 7.00 | > 7.00 | 6.00 to 7.00 | B (B represents an MIC between 1 and 16 μg/mL inclusive) | C (C represents an MIC of <1 μg/mL) | B (B represents an MIC between 1 and 16 μg/mL inclusive) | B (B represents an MIC between 1 and 16 μg/mL inclusive) | B (B represents an MIC between 1 and 16 μg/mL inclusive) | B (B represents an MIC between 1 and 16 μg/mL inclusive) | – | – |
| O=C(Cn1nnnc1CC(=O)N[C@H]1Cc2cccc(C(=O)O)c2OB1O)N[C@H]1CCNC1 [Example 43, (R)-2-hydroxy-3-(2-(1-(2-oxo-2-(((S)-pyrrolidin-3-yl)amino)ethyl)-1H-tetrazol-5-yl)acetamido)-3,4-dihydro-2H-benzo[e][1,2]oxaborinine-8-carboxylic acid] | > 7.00 | > 7.00 | > 7.00 | > 7.00 | 6.00 to 7.00 | C (C represents an MIC of <1 μg/mL) | C (C represents an MIC of <1 μg/mL) | C (C represents an MIC of <1 μg/mL) | C (C represents an MIC of <1 μg/mL) | B (B represents an MIC between 1 and 16 μg/mL inclusive) | B (B represents an MIC between 1 and 16 μg/mL inclusive) | – | – |
| NCCCn1nnnc1CC(=O)N[C@H]1Cc2cccc(C(=O)O)c2OB1O [Example 50, (R)-3-(2-(1-(3-aminopropyl)-1H-tetrazol-5-yl)acetamido)-2-hydroxy-3,4-dihydro-2H-benzo[e][1,2]oxaborinine-8-carboxylic acid] | > 7.00 | > 7.00 | > 7.00 | > 7.00 | 5.00 to 6.00 | C (C represents an MIC of <1 μg/mL) | C (C represents an MIC of <1 μg/mL) | C (C represents an MIC of <1 μg/mL) | C (C represents an MIC of <1 μg/mL) | C (C represents an MIC of <1 μg/mL) | B (B represents an MIC between 1 and 16 μg/mL inclusive) | – | – |
| CC(C)(C(=O)N[C@H]1Cc2cccc(C(=O)O)c2OB1O)n1cc(CNC(=N)N)nn1 [Example 39, (R)-3-(2-(4-(guanidinomethyl)-1H-1,2,3-triazol-1-yl)-2-methylpropanamido)-2-hydroxy-3,4-dihydro-2H-benzo[e][1,2]oxaborinine-8-carboxylic acid] | > 7.00 | > 7.00 | > 7.00 | > 7.00 | 6.00 to 7.00 | C (C represents an MIC of <1 μg/mL) | C (C represents an MIC of <1 μg/mL) | B (B represents an MIC between 1 and 16 μg/mL inclusive) | C (C represents an MIC of <1 μg/mL) | B (B represents an MIC between 1 and 16 μg/mL inclusive) | B (B represents an MIC between 1 and 16 μg/mL inclusive) | – | – |
